{"source": "patent US20250345454A1", "about": "“CHEMOTHERAPEUTIC PACLITAXEL BASED MICELLULAR NANOPARTICLES” (Peptinovo Biopharma Inc., priority 2024, published 2025)", "key": {"SK-OV-3 cells": {"system": "SK-OV-3 cells", "assay": "SK-OV-3 growth inhibition, 72 hr, MTT assay", "format": "cell-based, human", "conditions": "for SK-OV-3 growth inhibition, comparison of anchor lipids: conjugates tested as C-m-HDLs prepared by solvent lyophilization, FIGS. 12A and 12B; for SK-OV-3 growth inhibition, comparison of peptides: tested as C-m-HDLs loaded with conjugate 20 made with the named peptide, FIG. 13", "procedure": "In this Example, the mole portions of components in the C-m-HDLs prepared by solvent lyophilization were POPC: egg SM: peptide: conjugate 5.6:2.4:2:1. 20 mM stock solutions of POPC and of egg SM were prepared in tert-butyl alcohol: water (8:2 v/v). Peptide SEQ ID NO: 25 (acetate counter ion) was dissolved in tert-butyl alcohol/water/acetic acid (80:20:7 v/v) to obtain a 10 mM peptide solution. Conjugates 20 and 30 were separately dissolved in tert-butyl alcohol: water (95:5) to a final concentration of 10 mM.\nFor C-m-HDL preparation, 2.8 mL of 20 mM POPC, 1.2 mL of 20 mM egg SM, 2 mL of 10 mM peptide, 1 mL of 10 mM conjugate, and 0.3 mL acetic acid were combined in a 20 mL glass vial. The combined solution was frozen at ≥−70° C. for ≥1 hr. The frozen vial was placed in the chamber of a lyophilizer set at a shelf temperature of −20° C. A vacuum between 100 to 150 mTorr was applied for >20 hr. The shelf temperature was raised to −10° C. and the vacuum was continued for >15 hr. The shelf temperature was then raised to 20° C. and the vacuum continued for 24 hr. The dried cake was dissolved in PBS to obtain C-m-HDLs. The uniformity of the C-m-HDLs was evaluated by SEC (Acclaim™ SEC-1000, 300 mm×4.6 mm column, 0.3 mL/min PBS mobile phase, 210 nm and 280 nm UV detection) and by dynamic light scattering. The phospholipid content was established with a commercially available, enzyme-based, colorimetric assay kit. Peptide and conjugate content were established by HPLC.\nTwo C-m-HDLs were prepared as above, containing either Conjugate 20 or Conjugate 30 were then tested for their growth inhibition activity against SK-OV-3 cells (ATCC). SK-OV-3 cells were grown in McCoy's-5A media supplemented with 10% fetal bovine serum and maintained in a 37° C. incubator under a 5% CO2 atmosphere. To assess growth inhibition, the growth medium of cells grown in 96-well plates was supplemented with various concentrations of C-m-HDL (cmpd 20), C-m-HDL (compd 30) or paclitaxel from a DMSO stock solution. The 96-well plates were incubated for 72 hr. The relative amount of live cells in each of the wells after 72 hr was determined with the MTT assay. The concentrations of test articles causing 50% growth inhibition (GIso) were obtained by performing a non-linear fit of the MTT results to a 4-parmeter logistic function. The results are plotted in FIG. 11."}, "Sprague-Dawley rats": {"system": "Sprague-Dawley rats", "assay": "Adrenal gland functionality in rats after dosing (ACTH challenge, plasma corticosterone)", "format": "in vivo", "conditions": "4 mg/kg on Days 1, 4 and 7; ACTH challenge Day 11; paclitaxel intraperitoneal, C-m-HDL intravenous; FIG. 10", "procedure": "A paclitaxel stock solution was prepared by dissolving paclitaxel in 1:1 (v/v) Cremophor EL/ethanol (95%) to a final paclitaxel concentration of […] (C-E paclitaxel solution). Next, a paclitaxel solution suitable for dosing was prepared by combining one volume of the C-E paclitaxel solution with 3 volumes of 0.9 weight % NaCl. This solution is designated as “Control”.\nC-m-HDL (cmpd 20) was prepared as per Example 12.\nThe in vivo study was conducted in rats in accordance with the current guidelines for animal welfare (Guide for the Care and Use of Laboratory Animals, 8th Ed., 2011). The procedures used in the study were reviewed and approved by the Institutional Animal Care and Use Committee.\nEighteen (18) female Sprague-Dawley rats were randomly assigned to 3 groups of 6 animals each. All animals were lightly anesthetized using isoflurane and dosed intraperitoneally on Days 1, 4, and 7 with paclitaxel at 4 mg/kg in a dose volume of 1.5 mL/kg, or intravenously with C-m-HDL (cmpd 20) at 4 mg/kg or vehicle (saline) via the tail vein using a dose volume of 1.5 mL/kg. Group 1 received saline, Group 2 received paclitaxel, and Group 3 received C-m-HDL (cmpd 20). On Day 11, rats in each group were lightly anesthetized using isoflurane within their home cage to minimize potential stress responses. […] Plasma corticosterone content was determined with a commercially available ELISA kit."}}, "note": "Where no end group is shown, it is not given here. [ ]: non-standard residue; d: D form. Aib = CC(C)(N)C(=O)O"}
{"molecule": "CC(=O)O[C@H]1C(=O)[C@@]2(C)[C@H]([C@H](OC(=O)c3ccccc3)[C@]3(O)C[C@H](OC(=O)[C@H](OC(=O)Oc4cc(C)c5c(c4)CC[C@@](C)(CC/C=C(\\C)CC/C=C(\\C)CCC=C(C)C)O5)[C@@H](NC(=O)c4ccccc4)c4ccccc4)C(C)=C1C3(C)C)[C@]1(OC(C)=O)CO[C@@H]1C[C@@H]2O", "note": "[Conjugate 20, paclitaxel-delta-tocotrienol conjugate]", "values": [{"measurement": "SK-OV-3 growth inhibition, comparison of anchor lipids", "setting": "SK-OV-3 cells", "result": "equivalent results"}, {"measurement": "SK-OV-3 growth inhibition, comparison of anchor lipids", "setting": "SK-OV-3 cells; listed as paclitaxel-delta-tocotrienol", "result": "essentially equivalent"}]}
{"molecule": "CC(=O)O[C@H]1C(=O)[C@@]2(C)[C@H]([C@H](OC(=O)c3ccccc3)[C@]3(O)C[C@H](OC(=O)[C@H](O)[C@@H](NC(=O)c4ccccc4)c4ccccc4)C(C)=C1C3(C)C)[C@]1(OC(C)=O)CO[C@@H]1C[C@@H]2O", "note": "[paclitaxel]", "values": [{"measurement": "adrenal function / adrenal toxicity", "setting": "Sprague-Dawley rats", "result": "lack of adrenal toxicity"}]}
{"molecule": "DVFQKLXELFNQLLEKWKQV (DVFQKL[Aib]ELFNQLLEKWKQV) [SEQ ID NO: 25, amphiphilic, alpha-helical peptide used to prepare C-m-HDLs]", "values": [{"measurement": "SK-OV-3 growth inhibition, comparison of peptides", "setting": "SK-OV-3 cells", "result": "substantially the same"}]}
{"molecule": "DVFQKLXELFNQLXEKWKQV (DVFQKL[Aib]ELFNQL[Aib]EKWKQV) [SEQ ID NO: 35, amphiphilic, alpha-helical peptide used to prepare C-m-HDLs]", "values": [{"measurement": "SK-OV-3 growth inhibition, comparison of peptides", "setting": "SK-OV-3 cells", "result": "substantially the same"}]}
